Data reported in patent publication US7179806B2, “Δ1-pyrrolines used as pesticides” (Bayer Cropscience AG, priority 2000, dated 2007).

Assay: log P determination by HPLC (reversed-phase C18, EEC Directive 79/831 Annex V.A8)
Assay type: physicochemical
Settings: reversed-phase C18 HPLC column, pH 2.3, pH 2.3, 0.1% aqueous phosphoric acid/acetonitrile gradient, 43° C
Source text: Mobile phases for determination in the acidic range: 0.1% aqueous phosphoric acid, acetonitrile; linear gradient from 10% acetonitrile to 90% acetonitrile.

Row | Structure (SMILES) | chromatographic logP
1 | Fc1cccc(F)c1C1=NC(c2ccc(-c3ccc(N4CCOCC4)nn3)cc2)CC1 (centres unmarked) [Example 48] | 1.19
2 | N#Cc1cccnc1N1CCN(c2ncc(-c3ccc(C4CCC(c5c(F)cccc5F)=N4)cc3)cn2)CC1 (centres unmarked) [Example 150] | 3.28
3 | CC(C)Sc1ncc(Br)cn1 [III-8, 5-bromo-2-pyrimidinyl isopropyl sulphide] | 3.34
4 | Fc1cccc(F)c1C1=NC(c2ccc(-c3ccccn3)cc2)CC1 (centres unmarked) [Example 4] | 1.24
5 | CN(C)c1ccc(-c2ccc(C3CCC(c4c(F)cccc4F)=N3)cc2)nn1 (centres unmarked) [Example 79] | 1.08
6 | CCCOc1ncc(-c2ccc(C3CCC(c4c(F)cccc4F)=N3)cc2)cn1 (centres unmarked) [Example 100] | 2.72
7 | CN(c1ccc(Cl)nn1)S(=O)(=O)C(F)(F)F [III-23, N-(6-chloro-3-pyridazinyl)(trifluoro)-N-methyl-methanesulphonamide] | 2.18
8 | CC(=O)OCCCN(Cc1ccc(-c2ccc(C3CCC(c4c(F)cccc4F)=N3)cc2)nn1)C(C)=O (centres unmarked) [Example 89] | 1.77
9 | Brc1ccc(N2CCOCC2)nc1 [III-1, 4-(5-bromo-2-pyridinyl)morpholine] | 1.63
10 | Cc1cnc(-c2ccc(C3CCC(c4c(F)cccc4F)=N3)cc2)nc1 (centres unmarked) [Example 177] | 2.02
11 | Fc1cccc(F)c1C1=NC(c2ccc(-c3ccc(N4CCCCCC4)nc3)cc2)CC1 (centres unmarked) [Example 109] | 1.65
12 | CCC(C)N(Cc1ccco1)c1ncc(-c2ccc(C3CCC(c4c(F)cccc4F)=N3)cc2)cn1 (centres unmarked) [Example 185] | 4.54
13 | Cc1ccc(CN(C)c2ncc(-c3ccc(C4CCC(c5c(F)cccc5F)=N4)cc3)cn2)o1 (centres unmarked) [Example 186] | 3.4
14 | Fc1ccccc1N1CCN(c2ccc(-c3ccc(C4CCC(c5c(F)cccc5F)=N4)cc3)cn2)CC1 (centres unmarked) [Example 171] | 2.51
15 | CC(C)(C)C1CCN(c2ccc(-c3ccc(C4CCC(c5c(F)cccc5F)=N4)cc3)cn2)CC1 (centres unmarked) [Example 175] | 2.89
16 | CCCC(C)N1CCN(c2ncc(-c3ccc(C4CCC(c5c(F)cccc5F)=N4)cc3)cn2)CC1 (centres unmarked) [Example 112] | 1.65
17 | Fc1cccc(F)c1C1=NC(c2ccc(-c3cnc(NC4CCCCC4)nc3)cc2)CC1 (centres unmarked) [Example 162] | 3
18 | CCCN(CC)c1ccc(-c2ccc(C3CCC(c4c(F)cccc4F)=N3)cc2)nn1 (centres unmarked) [Example 52] | 1.6
19 | Fc1cccc(F)c1C1=NC(c2ccc(-c3cnc(NC4CC4)nc3)cc2)CC1 (centres unmarked) [Example 160] | 1.65
20 | FC(F)(F)COc1ccc(Br)cn1 [III-2, 5-bromo-2-(2,2,2-trifluoroethoxy)pyridine] | 3.48
21 | CCCCCCNc1ncc(-c2ccc(C3CCC(c4c(F)cccc4F)=N3)cc2)cn1 (centres unmarked) [Example 153] | 3.1
22 | Cc1cccc(N2CCN(c3ccc(-c4ccc(C5CCC(c6c(F)cccc6F)=N5)cc4)cn3)CC2)c1C (centres unmarked) [Example 157] | 3.63
23 | Fc1cccc(F)c1C1=NC(c2ccc(-c3cnc(N4CCCCCC4)nc3)cc2)CC1 (centres unmarked) [Example 105] | 3.41
24 | N#Cc1ccc(N2CCN(c3ccc(-c4ccc(C5CCC(c6c(F)cccc6F)=N5)cc4)cn3)CC2)cc1 (centres unmarked) [Example 129] | 2.29
25 | Fc1cccc(F)c1C1=NC(c2ccc(-c3ccc(Cl)nc3)cc2)CC1 (centres unmarked) [Example 19] | 2.58
26 | COCCCN1CCN(c2ccc(-c3ccc(C4CCC(c5c(F)cccc5F)=N4)cc3)cn2)CC1 (centres unmarked) [Example 195] | 1.16
27 | Fc1cccc(F)c1C1=NC(c2ccc(-c3cnc(-n4ccnc4)nc3)cc2)CC1 (centres unmarked) [Example 124] | 1.25

Further lines, results first:

Row | chromatographic logP | Structure (SMILES)
28 | 3.28 | CC(C)COC(=O)c1ccc(-c2ccc(C3CCC(c4c(F)cccc4F)=N3)cc2)nc1 (centres unmarked) [Example 9]
29 | 2.25 | Fc1cccc(F)c1C1=NC(c2ccc(-c3cnc(N4CCN(Cc5ccc(Cl)cc5)CC4)nc3)cc2)CC1 (centres unmarked) [Example 143]
30 | 2.1 | CC1CC(C)CN(c2ccc(-c3ccc(C4CCC(c5c(F)cccc5F)=N4)cc3)cn2)C1 (centres unmarked) [Example 97]
31 | 3.13 | Fc1cccc(F)c1C1=NC(c2ccc(-c3cnc(N4CCSCC4)nc3)cc2)CC1 (centres unmarked) [Example 140]
32 | 1.79 | Fc1cccc(F)c1C1=NC(c2ccc(-c3ncccn3)cc2)CC1 (centres unmarked) [Example 26]
33 | 3.89 | CC(C)OC(=O)c1ccc(-c2ccc(C3CCC(c4c(F)cccc4F)=N3)cc2)nc1 (centres unmarked) [Example 8]
34 | 1.4 | CC(C)S(=O)(=O)c1ccc(-c2ccc(C3CCC(c4c(F)cccc4F)=N3)cc2)nn1 (centres unmarked) [Example 82]
35 | 2.88 | Fc1cccc(F)c1C1=NC(c2ccc(-c3cnc(OCC(F)(F)F)nc3)cc2)CC1 (centres unmarked) [Example 3, 5-{4-[5-(2,6-difluorophenyl)-3,4-dihydro-2H-pyrrol-2-yl]phenyl}-2-(2,2,2-trifluorethoxy)pyrimidine]
36 | 3.21 | Fc1cccc(F)c1C1=NC(c2ccc(-c3cnc(OC4CCCC4)nc3)cc2)CC1 (centres unmarked) [Example 199]
37 | 3.76 | Cc1cccc(C)c1N1CCN(c2ccc(-c3ccc(C4CCC(c5c(F)cccc5F)=N4)cc3)cn2)CC1 (centres unmarked) [Example 205]
38 | 1.69 | N#CCCN1CCN(c2ncc(-c3ccc(C4CCC(c5c(F)cccc5F)=N4)cc3)cn2)CC1 (centres unmarked) [Example 131]
39 | 3.38 | FC(F)Sc1ncc(-c2ccc(C3CCC(c4ccccc4Cl)=N3)cc2)cn1 (centres unmarked) [Example 93]
40 | 3.57 | CCCN(CC)c1ncc(-c2ccc(C3CCC(c4c(F)cccc4F)=N3)cc2)cn1 (centres unmarked) [Example 1, N-(5-{4-[5-(2,6-difluorophenyl)-3,4-dihydro-2H-pyrrol-2-yl]phenyl}-2-pyrimidinyl)-N-ethyl-N-propylamine]
41 | 1.24 | Cc1ccc(-c2ccc(C3CCC(c4c(F)cccc4F)=N3)cc2)nc1 (centres unmarked) [Example 202]
42 | 3.1 | CCON=C1CCN(c2ncc(-c3ccc(C4CCC(c5c(F)cccc5F)=N4)cc3)cn2)CC1 (centres unmarked) [Example 216]
43 | 2.96 | CCCc1cnc(-c2ccc(C3CCC(c4c(F)cccc4F)=N3)cc2)nc1 (centres unmarked) [Example 169]
44 | 1.38 | COCCCN1CCN(c2ncc(-c3ccc(C4CCC(c5c(F)cccc5F)=N4)cc3)cn2)CC1 (centres unmarked) [Example 126]
45 | 2.21 | CCOc1ncc(-c2ccc(C3CCC(c4c(F)cccc4F)=N3)cc2)cn1 (centres unmarked) [Example 102]
46 | 1.49 | COCCN1CCN(c2ncc(-c3ccc(C4CCC(c5c(F)cccc5F)=N4)cc3)cn2)CC1 (centres unmarked) [Example 148]
47 | 3.58 | CCCN(CC)c1ncc(-c2ccc([C@H]3CCC(c4c(F)cccc4F)=N3)cc2)cn1 [Example 163]
48 | 1.28 | Fc1cccc(F)c1C1=NC(c2ccc(-c3ccc(N4CCCC4)nn3)cc2)CC1 (centres unmarked) [Example 81]
49 | 2.18 | Fc1cccc(F)c1C1=NC(c2ccc(-c3cnc(N4CCOCC4)nc3)cc2)CC1 (centres unmarked) [Example 32]
50 | 1.24 | CCN1CCN(c2ncc(-c3ccc(C4CCC(c5c(F)cccc5F)=N4)cc3)cn2)CC1 (centres unmarked) [Example 101]
51 | 1.48 | CC(=O)N(C)c1ccc(-c2ccc(C3CCC(c4c(F)cccc4F)=N3)cc2)nn1 (centres unmarked) [Example 67]
52 | 1.09 | O=C1CCCN1c1ccc(Cl)nn1 [III-14, 1-(6-chloro-3-pyridazinyl)-2-pyrrolidinone]
53 | 2.11 | Fc1cccc(F)c1C1=NC(c2ccc(-c3cnc(N4CCCC4)nc3)cc2)CC1 (centres unmarked) [Example 41]
